Values of other authors in patent publication US20070021352A1, “PREVENTION AND TREATMENT OF HEARING DISORDERS” (Cypress Bioscience, Inc., priority 2005, published 2007).

Experiments:
cochlea = conditions: guinea pig model; local administration
[1] = elderly patients; preliminary results
[2] = humans; daily ingestion of 122 mg for 10 days
[3] = normal, healthy volunteers; daily ingestion of 6.7 mmol; rifle noise six days per week for eight weeks; vs placebo (sodium aspartate)

## CCN(CC)CCn1c(=O)c(Cc2ccc(OC)cc2)nc2ccccc21 [caroverine, 1-[2-(diethylamino)ethyl]-3-[(4-methoxyphenyl)methyl]-2-(1H)-quinoxalinone]
cochlea
  protection of cochlea from noise trauma: protection of cochlea from noise trauma

## CN(C)CCCC1(c2ccc(F)cc2)OCc2cc(C#N)ccc21 (stereo not shown) [citalopram, 1-[3-(dimethylamino)propyl]-1-(4-fluorophenyl)-1,3-dihydro-5-isobenzofurancarbonitrile]
[1]
  impact on auditory processes: positive impact on auditory processes in the elderly

## [Mg] [magnesium]
[2]
  noise-induced temporary threshold shift: protect against noise-induced temporary threshold shift

## N[C@@H](CC(=O)[O-])C(=O)[O-].[Mg+2] [magnesium aspartate]
[3]
  permanent threshold shift: significant effect on permanent threshold shift
